One may read the half-life as how long it takes for the measured level to halve. Read a high half-life as slow loss. What is called ED50 is the dose that gives a 50% effect, or the effect in half of the subjects.

Drawing on patent US6780854B2, “Orally active androgens” (Akzo Nobel NV, priority 1999, dated 2004), this text covers half-life and ED50 for 3 molecules.

Series [1] in a line: t1/2 after incubation with human hepatocytes (metabolic stability). The format is in vitro ADME. Particulars: male, cryopreserved human hepatocytes in suspension; 10 nM compound; cryopreserved human hepatocyte suspension, 37° C.; incubations stopped after 0.5, 1 and 3 h; LC-MS/MS. The method, then: Determination of t1′2 of Androgens of the Invention after Incubation with Human Hepatocytes
The half-life of a compound as a result of contact with human hepatocytes holds as a reliable indication of metabolic stability. As it is well known that the absorption of this class of steroids is high, this assay provides an in vitro model for oral activity in humans.
Hepatocytes collected from healthy young (25-45 year) male organ donors were cryo preserved in liquid nitrogen and kept there until use. They were thawed at 37° C. in a waterbath, placed immediately on ice, washed twice in one volume of cold (4° C.) incubation medium [William's medium E (without phenol red) with Glutamax I®, gentamicin 50 μg/ml, insulin 1 μM, hydrocortisone hemisuccinate 10 μM, fetal calf serum 0% (v/v)], counted and the viability checked by Trypan blue exclusion. Cells were incubated as suspensions in 12-wells (non-coated) plates at a nominal density of 0.5×10^6 cells/well in 1.5 ml medium at 37° C. with an air/O2/CO2 mixture (55/40/5). The plates were set on an orbital shaker at approximately 10 rpm.
The hepatocytes were incubated with 10 nM final concentration of the compound to be tested. The incubations were stopped after 0.5, 1 and 3 h by pipetting the whole incubation mixture into a glass tube and adding one volume of acetone on ice. The acetone was dried under a nitrogen flow at room temperature, the volume adjusted to 1.5 ml and the tubes were centrifuged at 4° C. at 10.000×g for 30 min. The de-proteinized supernatants were collected for LC-MS/MS analysis.

Another series has as its system serum LH. Nature of the series: LH suppression assay: determination of oral activity. Particulars: Rattus norvegicus; mature male castrated rats; po daily for 4 days in arachis oil; serum LH 3 hours after last oral dose; read-out: ED50 (po) required to suppress serum LH for 50% (±10%). The class given is in vivo. The method, then: The LH Suppression Assay: Determination of Oral Activity
The in vivo potency (po) of several androgens of the invention was determined in a mature male castrated rat model, in comparison wih Segaloff compound. In this model serum LH is high (50× fold higher than with intact rats, due to the absence of the negative feedback of testicular testosterone). These rats are po treated for 4 days daily with a given compound of the invention in a suspension fluid of arachis oil. Before dosing and 3 hours after the last oral dose blood is collected via tail vene and in the serum LH is determined. Potency (po) of the androgens (ED50) are expressed as the amount (mg/kg) of androgen which suppresses serum LH for 50% (±10%).
The rat LH Time-Resolved Immuno Fluorometric Assay (TR-IFMA) has been developed in house using home made reagents, a monoclonal catching antibody directed against the β-subunit of human chorion gonadotrophin (hCG, which cross react with rat β-subunit) and a biotin labelled detecting antibody (rabbit polyclonal antibody directed against the alfa-subunit of recombinant rat LH). Recombinant rat LH was prepared according to the methods described by Hakola et al (1997). In this two-site-IFMA, only intact rat LH is determined by a final incubation with streptavidin-europium. The detection in the IFMA is based on fluorescence of the lanthanide europium during a relative long exitation period. The concentration range of rat LH standard is 0.001-10 ng/ml, for optimal accuracy measurements of serum LH serum samples were diluted 8-times with assay buffer [Hakola, K., Boogaart, P. V., Mulders, J., de Leeuw, R., Schoonen, W., Heyst, J. V., Swolfs, A., Casteren, J. V., Huhtaniemi, I., and Kloosterboer, H. J., Recombinant rat luteinizing hormone; production by Chinese hamster ovary cells, purification and functional characterization, Molecular & Cellular Endocrinology 128, 47 (1997)].

With `C[C@@H]1CC2=CC(=O)CC[C@@H]2[C@H]2CC[C@@]3(C)C(=CC[C@@H]3O)[C@@H]21` [Segaloff compound, (7α,17β)-7-Methyl-17-hydroxyestra-4,14-dien-3-one, reference compound], the half-life at 10 nM in series [1] was 1 h. In addition, the ED50 with serum LH was 5 mg/kg.

In the case of `CC[C@@H]1CC2=CC(=O)CC[C@@H]2[C@H]2CC[C@@]3(C)C(=CC[C@@H]3O)[C@H]12` [Example 1a, (7α,17β)-7-Ethyl-17-hydroxyestra-4,14-dien-3-one], in series [1], the half-life at 10 nM amounted to 2.62 h. In addition, the ED50 with serum LH stood at 0.2 mg/kg.

In the case of `C=C[C@@H]1CC2=CC(=O)CC[C@@H]2[C@H]2CC[C@@]3(C)C(=CC[C@@H]3O)[C@@H]21` [Example 2, (7α,17β)-7-Ethenyl-17-hydroxyestra-4,14-dien-3-one], the half-life at 10 nM in series [1] was found to be 0.667 h. Besides, the ED50 with serum LH worked out at 0.5 mg/kg.
